From article PMC11875561, “Molecular Insights into the Heme‐Binding Potential of Plant NCR247‐Derived Peptides” (Chembiochem, 2025)
Bridge positions count the residues as written; N and C are the ends. Ends that are not written are not given here.

Key:
NCR247_reduced [1] = assay: UV/vis difference-spectroscopic titration of peptide (10 or 20 uM) with heme (0.4-40 uM) in 100 mM HEPES pH 7.0 after 1 min incubation, evaluated near 428 nm for one binding site.
Description: (§1) Heme binding to the NCR247 parent peptide and its analogues was assessed using UV/vis spectroscopy (Table S2) following an earlier established experimental set‐up,[27, 30, 31, 32] with heme (0.4 to 40 μM) titrated to NCR247 peptide (20 μM) in 100 mM HEPES buffer (pH 7.0). […] The KD value for this peptide was first determined by adjusting the established protocol[30] to 1 min incubation time, while at an incubation time of 30 min concomitant oxidation of the cysteine residues has taken place as indicated by the fact that a stable complex was formed only in the first minutes and then a change in the spectrum occurred which is due to disulfide bond formation changing the heme‐binding behaviour of the peptide. […]
(§2) Heme binding to the NCR247-derived peptides (Fig. 1, Table S1) was investigated by UV/vis spectroscopy, as described earlier.[2,3,7– 9] […] Absorbance spectra were recorded on a Multiskan GO spectrophotometer (ThermoScientific, Dreieich, Germany) in the range of 300 - 600 nm. Difference spectra were generated by subtracting the spectra of heme and peptide alone from the absorbance spectrum of the hemin-peptide complex. Dissociation constants (KD) were determined by using GraphPad Prism 10.0.2 and the earlier established equation from Pîrnău and Bogdan, as described elsewhere.[7,10]

MBP-NCR247_1-4,2-3 [2] = assay: UV/vis spectroscopic titration of preformed MBP (10 uM) plus NCR247_1-4,2-3 (10 uM) with heme (4-45 uM), 30 min incubation, evaluated with a model of two heme molecules per complex.; conditions: read-out: KD value, two heme molecules binding to the MBP-NCR247_1-4,2-3 complex
Description: (§3) Peroxidase-like activity of the heme-peptide complexes.
(§4) 10 μl of the heme-peptide complex (final concentration:
(§5) (100%) and evaluated as the average of triplicate measurements.
(§6) Subsequently, absorbance spectra were recorded
(§7) Similar to the aforementioned approach,
(§8) NCR247 was added and measured spectroscopically.
(§9) Resonance Raman spectroscopy of the heme-peptide complexes.
(§10) -60°C (ANDOR, Ireland, 1024x127 pixels) used for detection.
(§11) were combined in an equimolar ratio.
(§12) The raw Raman spectra were
(§13) visualised using the graphing software OriginPro 2016G Sr2.
(§14) clipping (SNIP) algorithm, and vector normalisation.
(§15) Circular Dichroism (CD) spectroscopy with NCR247-derived peptides.
(§16) All the peptide solutions were prepared
(§17) prediction tool. […] The structure

MBP = target: T1, MBP (Escherichia coli, UniProt P0AEX9); assay: UV/vis spectroscopic titration of MBP (10 uM) with heme (4-40 uM) in HEPES pH 7.0 after 30 min incubation, 1:1 model, Soret band near 400 nm.; type: binding; conditions: read-out: KD value, stoichiometry 1:1 (MBP:heme)
T1 construct: gene malE; commercial (Rockland Inc.)
Description: We thus conducted UV/vis measurements[36, 41] by titrating increasing concentrations of heme (4–40 μM) to the protein (10 μM).
(§21) UV/vis titration experiments of peptides and proteins with heme.
(§22) Maltose-binding protein (Rockland Inc. Pennsylvania, USA) (10 µM) was preincubated with heme in different concentrations (4 - 40
(§23) µM) for 30 min in HEPES buffer (pH 7.0) prior to the UV/vis spectroscopic analysis. Subsequently, absorbance spectra were recorded
and analysed analogously to the heme-binding studies with the peptides described above.[2]

NCR247_1-4,2-3 = target: T2, NCR247_1-4,2-3; assay: UV/vis difference-spectroscopic titration of peptide (10 or 20 uM) with heme (0.4-40 uM) in 100 mM HEPES pH 7.0 after 30 min incubation at room temperature, one binding site.
T2 construct: synthetic 24mer, oxidized isomer, disulfides Cys4-Cys21 and Cys10-Cys15
Description: (§18) Heme binding to the NCR247 parent peptide and its analogues was assessed using UV/vis spectroscopy (Table S2) following an earlier established experimental set‐up,[27, 30, 31, 32] with heme (0.4 to 40 μM) titrated to NCR247 peptide (20 μM) in 100 mM HEPES buffer (pH 7.0). […] The KD value for this peptide was first determined by adjusting the established protocol[30] to 1 min incubation time, while at an incubation time of 30 min concomitant oxidation of the cysteine residues has taken place as indicated by the fact that a stable complex was formed only in the first minutes and then a change in the spectrum occurred which is due to disulfide bond formation changing the heme‐binding behaviour of the peptide.
(§19) Figure 4 Heme‐binding analysis of NCR247 peptides. UV/vis spectroscopic analysis upon addition of increasing concentrations of heme (0.4–40 μM) to NCR247 oxidized isomers (on the left), in silico docking analysis (in the middle) showing residues involved in heme binding and rRaman spectra of heme‐peptide (1 : 1) complex (on the right). a, NCR247_1–3,2–4. b, NCR247_1–2,3–4. c, NCR247_reduced form, with free Cys residues. The complex formation was analysed after incubating it for 30 min at room temperature. The change in the spectral behaviour when measured after 1 min and 30 min of complex incubation is noteworthy. The intensity of the bands at λ =364 nm, indicate a change in the peptide and can be attributed to concomitant oxidation of free Cys residues in aqueous buffer systems, making the Soret band at λ =428 nm more prominent, similar to the one observed in case of the oxidized isomers. d, Peroxidase‐like activity assay of heme‐NCR247 complex measured using an oxidative conversion of TMB substrate at 652 nm. […]
(§20) Under oxidative reaction conditions, the cysteines were deprotected and folded by formation of the disulfide bridges between the cysteines according to protocols reported earlier.[4,5] […]

NCR247_1-3,2-4 = target: T3, NCR247_1-3,2-4; assay: as above
T3 construct: synthetic 24mer, oxidized isomer, disulfides Cys4-Cys15 and Cys10-Cys21
Description: as §18, §19, §20

NCR247_1-2,3-4 = target: T4, NCR247_1-2,3-4; assay: as above
T4 construct: synthetic 24mer, oxidized isomer, disulfides Cys4-Cys10 and Cys15-Cys21
Description: as §18, §19, §20

NCR247_reduced [3] = assay: as above
Description: Heme binding to the NCR247 parent peptide and its analogues was assessed using UV/vis spectroscopy (Table S2) following an earlier established experimental set‐up,[27, 30, 31, 32] with heme (0.4 to 40 μM) titrated to NCR247 peptide (20 μM) in 100 mM HEPES buffer (pH 7.0). […] time, while at an incubation time of 30 min concomitant oxidation of the cysteine residues has taken place as indicated by the fact that a stable complex was formed only in the first minutes and then a change in the spectrum occurred which is due to disulfide bond formation changing the heme‐binding behaviour of the peptide.
Figure 4 Heme‐binding analysis of NCR247 peptides. […] The complex formation was analysed after incubating it for 30 min at room temperature. The change in the spectral behaviour when measured after 1 min and 30 min of complex incubation is noteworthy. The intensity of the bands at λ =364 nm, indicate a change in the peptide and can be attributed to concomitant oxidation of free Cys residues in aqueous buffer systems, making the Soret band at λ =428 nm more prominent, similar to the one observed in case of the oxidized isomers. d, Peroxidase‐like activity assay of heme‐NCR247 complex measured using an oxidative conversion of TMB substrate at 652 nm. […]

MBP-NCR247_1-4,2-3 [4] = assay: UV/vis spectroscopic titration of preformed MBP (10 uM) plus NCR247_1-4,2-3 (10 uM) with heme (4-45 uM), 30 min incubation, evaluated near 420 nm with a 1:1 model.; type: binding; conditions: read-out: KD value, stoichiometry 1:1 (MBP-NCR247_1-4,2-3:heme)
Description: as §3, §4, §5, §6, §7, §8, §9, §10, §11, §12, §13, §14, §15, §16, §17

[5] = UV/vis titration of MBP in complex with NCR247_1–4,2–3 with heme; conditions: peptide versus MBP
Description: as §21, §22, §23
and analysed analogously to the heme-binding studies with the peptides described above.[2] Similar to the aforementioned approach,
NCR247 was added and measured spectroscopically. In addition to this, 10 µM NCR247_1-4,2-3 was incubated with increasing

[6] = set-up: method as in earlier work; conditions: ref 11 (Sankari et al.); cited from earlier work
[7] = UV/vis spectroscopy heme binding to NCR247-derived peptides; conditions: 30 min incubation; Soret λ ~420 nm (oxidized isomers) or ~428 nm (reduced); n=1; peptide 20 μM, heme 0.4-40 μM, 100 mM HEPES pH 7.0
Description: as §1, §2

Question: Which Kd (NCR247_reduced [1]) does the source give for `C=CC1=C(C)c2cc3[nH]c(cc4nc(cc5[nH]c(cc1n2)c(C)c5CCC(=O)O)C(CCC(=O)O)=C4C)c(C)c3C=C.[Fe+3]` [heme, Fe(III) protoporphyrin IX (Fe(III)PPIX, hemin)] here?
Answer: Its Kd is 1.44 µM.

Question: And the Kd (MBP-NCR247_1-4,2-3 [2])?
Answer: Its Kd is 7.6 µM.

Question: What about the Kd (MBP) of the same molecule?
Answer: Its Kd is 7.2 µM.

Question: And the Kd (NCR247_1-4,2-3)?
Answer: Its Kd is 2800 nM.

Question: What about the Kd (NCR247_1-3,2-4) of the same molecule?
Answer: Its Kd is 2090 nM.

Question: What about the Kd (NCR247_1-2,3-4) of the same molecule?
Answer: Its Kd is 2980 nM.

Question: And the Kd (NCR247_reduced [3])?
Answer: Its Kd is 2270 nM.

Question: And the Kd (MBP-NCR247_1-4,2-3 [4])?
Answer: The Kd was 14.9 µM.

Question: Which “binding affinity of the peptide compared to the protein (MBP)” value [5] does the source give for “NCR247_1–4,2–3: RNGCIVDPRCPYQQCRRPLYCRRR, isomer with bridges Cys4‐Cys21 and Cys10‐Cys15 (disulfide 10-15, 4-21)” here?
Answer: Its value is “two‐fold higher”.

Question: What does the source list for “NSR247: RNGSIVDPRSPYQQSRRPLYSRRR, mutant with all cysteine residues replaced with serine, negative control”?
Answer: heme-binding affinity [6]: μM range; KD heme binding [7]: n.b. and completely lost and absence of heme binding
